The values below come from patent publication US8362067B2, “3-aminoalkyl-1,3-dihydro-2H-indol-2-one derivatives, preparation thereof and therapeutic use thereof” (Sanofi, priority 2008, dated 2013).

For one data set, the target named is human V1a receptors (Homo sapiens, UniProt P37288). The data set can be described thus: Measurement of intracellular calcium (FLIPR) on cells expressing human V1a receptors. The class given is cell-based. The settings on record: blocking the pharmacological effects brought about by arginine-vasopressin (FLIPR and platelet aggregation tests). The protocol: The agonist or antagonist nature of the compounds is determined in vitro in a test for the measurement of intracellular calcium (FLIPR) on cells expressing human V1a receptors according to the general technique described in Sullivan et al., Methods Mol. Biol., 1999, 114, 125-133, using 1 μM of Fluo4 AM, and in a test for platelet aggregation induced with AVP on human PRP (platelet-rich plasma) according to the methodology described in J. Clin. Invest., 1993, 92, 224-231. The compounds are preincubated 30 minutes before the addition of the arginine-vasopressin in order to determine the agonist and antagonist properties of these molecules.
Chain of human V1a receptors (P37288 whole entry): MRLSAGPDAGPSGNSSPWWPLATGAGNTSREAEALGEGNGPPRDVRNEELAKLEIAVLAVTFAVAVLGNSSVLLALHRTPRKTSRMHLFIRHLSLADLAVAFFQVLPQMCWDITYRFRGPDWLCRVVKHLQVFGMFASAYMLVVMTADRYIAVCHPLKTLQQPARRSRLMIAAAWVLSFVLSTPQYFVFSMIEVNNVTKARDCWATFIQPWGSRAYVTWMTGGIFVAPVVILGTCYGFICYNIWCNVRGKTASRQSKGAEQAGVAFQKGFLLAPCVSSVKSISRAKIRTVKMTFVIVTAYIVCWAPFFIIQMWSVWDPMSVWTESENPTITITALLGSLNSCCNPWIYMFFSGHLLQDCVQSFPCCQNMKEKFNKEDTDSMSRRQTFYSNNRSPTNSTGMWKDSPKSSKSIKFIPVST
(Calcium flux is commonly read through the fluorescence of an indicator in the cells.)

Another data set addresses T1, human V1b receptors (Homo sapiens, UniProt P47901).
T1 sequence (P47901 1-424): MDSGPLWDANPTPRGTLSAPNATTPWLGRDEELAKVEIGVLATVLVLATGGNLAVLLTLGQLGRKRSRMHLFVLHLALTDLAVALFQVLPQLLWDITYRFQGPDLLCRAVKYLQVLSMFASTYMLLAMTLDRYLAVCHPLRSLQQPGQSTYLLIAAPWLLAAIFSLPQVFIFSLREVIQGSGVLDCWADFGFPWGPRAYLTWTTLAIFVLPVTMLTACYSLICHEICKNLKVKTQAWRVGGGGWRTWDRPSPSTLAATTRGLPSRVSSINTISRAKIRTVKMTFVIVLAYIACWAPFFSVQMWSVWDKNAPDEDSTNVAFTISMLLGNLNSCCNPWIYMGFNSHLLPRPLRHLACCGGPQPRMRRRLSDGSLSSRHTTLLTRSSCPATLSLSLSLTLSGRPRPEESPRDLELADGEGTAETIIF
Description: Affinity for human V1b receptors: displacement of [3H]-AVP. The note with it: binding. The protocol: The affinity of the compounds of formula (I) according to the invention for arginine-vasopressin V1b receptors was determined in vitro using the method described by Y. de Keyser et al. in Febs Letters, 1994, 356, 215-220. This method consists in studying in vitro the displacement of tritiated arginine-vasopressin ([^3H]-AVP) at the V1b receptors present on cell preparations carrying human V1b receptors.
(§1) The comparative pharmacological results of Compounds Nos. 17, 38, 46, 107 and 108 according to the invention with the compounds α and β of the prior art on the various in vitro tests measuring the affinity at human V1a, V1b, V2 and oxytocin receptors are illustrated in the following TABLE XV. The results are expressed by the 50% inhibitory concentration (IC50) expressed on a nanomolar basis (nM).
(In a radioligand displacement assay an active substance lowers the binding of a labelled ligand.)

The target in the next data set is human V2 receptors (Homo sapiens, UniProt P30518). Description: Affinity for vasopressin V2 receptors. In kind it is binding. The note with it: for IC50: binding.
Chain of human V2 receptors (P30518 whole entry): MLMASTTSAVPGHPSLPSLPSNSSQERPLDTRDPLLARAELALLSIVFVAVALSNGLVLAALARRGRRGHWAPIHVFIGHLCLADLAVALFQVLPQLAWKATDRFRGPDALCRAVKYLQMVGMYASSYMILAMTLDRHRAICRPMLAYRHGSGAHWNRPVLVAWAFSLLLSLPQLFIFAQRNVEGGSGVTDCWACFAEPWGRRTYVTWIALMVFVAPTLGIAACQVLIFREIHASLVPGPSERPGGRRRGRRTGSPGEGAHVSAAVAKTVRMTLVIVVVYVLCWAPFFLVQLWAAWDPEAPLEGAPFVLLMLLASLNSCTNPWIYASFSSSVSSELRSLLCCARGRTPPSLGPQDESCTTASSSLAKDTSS
Excerpt: The affinity of the compounds of formula (I) according to the invention for vasopressin V2 receptors was also studied (method described by M. Birnbaumer et al. in Nature (Lond.), 1992, 357, 333-335).
as §1

In data set [1] the target is human arginine-vasopressin V1a receptors (Homo sapiens, UniProt P37288). Description: Affinity for human V1a receptors: displacement of [3H]-AVP. The class given is binding. The settings on record: for IC50: binding, displacement of [3H]-AVP; for selectivity for human AVP V1a receptors and for human AVP V1b receptors: versus V2 and/or oxytocin receptors. The protocol:
The affinity of the compounds of formula (I) according to the invention for arginine-vasopressin V1a receptors was determined in vitro using the method described by M. Thibonnier et al., J. Biol. Chem., 1994, 269, 3304-3310. This method consists in studying in vitro the displacement of tritiated arginine-vasopressin ([^3H]-AVP) at the V1a receptors present on membrane or cell preparations carrying rat or human V1a receptors.
as §1

The target of data set [2] is T2, human uterine oxytocin receptor (Homo sapiens, UniProt P30559).
T2 construct: expressed in transfected cells
T2 sequence (P30559 1-389): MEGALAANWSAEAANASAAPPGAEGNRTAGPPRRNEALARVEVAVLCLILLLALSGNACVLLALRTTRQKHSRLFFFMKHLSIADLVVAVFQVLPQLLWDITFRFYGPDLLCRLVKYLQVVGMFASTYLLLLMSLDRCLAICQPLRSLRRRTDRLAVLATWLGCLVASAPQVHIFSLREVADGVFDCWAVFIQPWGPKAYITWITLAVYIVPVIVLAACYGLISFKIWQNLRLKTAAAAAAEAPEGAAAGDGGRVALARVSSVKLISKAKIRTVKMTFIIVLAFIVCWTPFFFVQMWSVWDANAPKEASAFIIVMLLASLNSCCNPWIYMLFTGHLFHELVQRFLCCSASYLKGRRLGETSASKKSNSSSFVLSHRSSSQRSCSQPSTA
Description: Affinity for oxytocin receptors: displacement of a radioiodinated oxytocin analog. In kind it is binding. The settings on record: for IC50: binding, radioiodinated oxytocin analog. The protocol: The affinity of the compounds according to the invention for oxytocin receptors was determined in an in vitro binding test using the method described by J. Elands et al. in Eur. J. Pharmacol., 1987, 147, 197-207. This method consists in studying in vitro the displacement of a radioiodinated oxytocin analog at the oxytocin receptors in a cell membrane preparation transfected with the human uterine oxytocin receptor.
as §1

Chain of human arginine-vasopressin V1a receptors (P37288 whole entry): as the sequence (P37288 whole entry) above

As a reminder, the melting point is the temperature, or range, at which the solid turns liquid. The compound `COc1cc2c(cc1Cl)C(CCCN1CCN(C)CC1)(c1ccccc1F)C(=O)N2S(=O)(=O)c1ccc(OC(C)C)cc1.Cl` (stereo not shown) [Compound No. 13, 5-Chloro-3-(2-fluorophenyl)-1-[(4-isopropoxyphenyl)sulfonyl]-6-methoxy-3-[3-(4-methylpiperazin-1-yl)propyl]-1,3-dihydroindol-2-one hydrochloride] came in with a melting point of 205 °C. Further, the “agonist or antagonist nature at V1a receptors” value on human V1a receptors is “antagonists of V1a receptors”.

Usually IC50 stands for the concentration that inhibits the measured activity by half. Regarding `COc1cc2c(cc1Cl)C(CCCN1CCNCC1)(c1ccccc1F)C(=O)N2S(=O)(=O)c1ccc(O)cc1` (stereo not shown) [Compound No. 46], the IC50 at human V1b receptors was 640 nM; at human V2 receptors, greater than 1000 nM; in data set [1], 2.4 nM; in data set [2] it was 380 nM.

With `CCN(CC)C(=O)Nc1ccc(S(=O)(=O)N2C(=O)C(NCCC3CCNCC3)(c3ccccc3Cl)c3cc(Cl)c(Cl)cc32)cc1` (stereo not drawn) [Compound α, 3-[4-[[5,6-dichloro-3-(2-chlorophenyl)-2-oxo-3-[(2-(piperidin-4-yl)ethyl)amino]-2,3-dihydro-1H-indol-1-yl]sulfonyl]phenyl]-1,1-diethylurea, reference compound], on human V2 receptors, the “affinity for human AVP V2 receptors” value is listed as “good affinity”. Also, in data set [1], the “affinity for human AVP V1a receptors” value was “good affinity”; the “selectivity for human AVP V1a receptors and for human AVP V1b receptors” value is recorded as “not selective”. The “affinity for oxytocin receptors” value in data set [2] is given as “good affinity”.

With `CCN(CC)C(=O)Nc1ccc(S(=O)(=O)N2C(=O)C(NCCC3CCNCC3)(c3ccccc3Cl)c3cc(Cl)c(C)cc32)cc1` (stereo not drawn) [Compound β, 3-[4-[[5-chloro-3-(2-chlorophenyl)-6-methyl-2-oxo-3-[(2-(piperidin-4-yl)ethyl)amino]-2,3-dihydro-1H-indol-1-yl]sulfonyl]phenyl]-1,1-diethylurea, reference compound], at human V2 receptors, the “affinity for human AVP V2 receptors” value is “good affinity”. Further, in data set [1], the “affinity for human AVP V1a receptors” value was “good affinity”; the “selectivity for human AVP V1a receptors and for human AVP V1b receptors” value was “not selective”.

`COc1cc2c(cc1Cl)C(CCCN1CCNCC1)(c1ccccc1F)C(=O)N2S(=O)(=O)c1ccc(OC(C)C)cc1.Cl` (single isomer, unassigned) [Compound No. 17, 5-Chloro-3-(2-fluorophenyl)-1-[(4-isopropoxyphenyl)sulfonyl]-6-methoxy-3-[3-(piperazin-1-yl)propyl]-1,3-dihydroindol-2-one hydrochloride] showed a melting point of 232 °C. Further, the IC50 on human V1b receptors is greater than 1000 nM. The same compound had an IC50 at human V2 receptors of 450 nM. At human V1a receptors, the “agonist or antagonist nature at V1a receptors” value is “antagonists of V1a receptors”. The IC50 in data set [1] was determined as 2.4 nM. Further, in data set [2], the half-inhibitory concentration (IC50) worked out at 390 nM.

In the case of `COc1ccc(S(=O)(=O)N2C(=O)C(CCCN3CCNCC3)(c3ccccc3F)c3cc(OC)c(OC)cc32)cc1C` (stereo not shown) [compound 108], the IC50 is 320 nM at human V1b receptors, greater than 1000 nM on human V2 receptors, 5 nM in data set [1] and greater than 1000 nM in data set [2].

For the compound `COc1cccc(S(=O)(=O)N2C(=O)C(CCCN3CCN(C)CC3)(c3ccccc3F)c3cc(Cl)c(OC)cc32)c1` (stereo not shown) [Compound No. 38], the 50% inhibitory concentration (IC50) is greater than 1000 nM at human V1b receptors, greater than 1000 nM at human V2 receptors, 1.1 nM in data set [1] and 500 nM in data set [2].

As to `COc1ccc(S(=O)(=O)N2C(=O)C(CCCN3CCNCC3)(c3ccccc3F)c3cc(F)c(OC)cc32)cc1C` (stereo not shown) [compound 107], the IC50 was 140 nM on human V1b receptors, greater than 1000 nM at human V2 receptors, 8.5 nM in data set [1] and greater than 1000 nM in data set [2].
